The record followed here is patent US7741350B1 (Cara Therapeutics, Inc., priority 2009, dated 2010).

Molecules are shown by their SMILES. Like-named read-outs stand apart in the source and are kept apart here.

For assay [1], the target named is human CB1 receptor (hCB1) (Homo sapiens, UniProt P21554). Nature of the assay: cAMP assay at human CB1 receptor. In kind it is cell-based. The following applies: hCB1R; maximum measurable range 30 μM; read-out: EC50 (Potency at Human CB1 determined by cAMP Assay). In short, it runs like this:
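Changes in intracellular cAMP measured by TR-FRET (665/615 nm) in forskolin-stimulated cells; cAMP read from a concurrent standard curve. Values normalised between forskolin and forskolin plus 1 μM CP55,940 wells. EC50 and intrinsic activity relative to CP55,940 from four-parameter nonlinear regression.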

Assay [2] deals with human CB2 receptor (hCB2) (Homo sapiens, UniProt P34972). Nature of the assay: cAMP assay at human CB2 receptor. In kind it is cell-based. The conditions noted are these: hCB2R, maximum measurable range 30 μM. In short, it runs like this:
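Values expressed as percent of the window between forskolin-stimulated wells and forskolin plus 1 μM CP55,940 wells.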

The subject of a further assay is male Sprague-Dawley rats. Nature of the assay: Anti-hyperalgesia in the Complete Freund's Adjuvant (CFA) model of inflammatory pain. The following applies: PO dose 3 mg/kg; 1 hr after dosing; thermal hyperalgesia; rat; read-out: % MPE (1 hr), paw withdrawal latency after CFA injection. In kind it is in vivo. How it is done:
The anti-hyperalgesic effects of test compounds in the Complete Freund's Adjuvant (CFA) model of inflammatory pain were determined essentially as described in U.S. Pat. No. 7,517,874 using male Sprague-Dawley rats (Hsd: Sprague-Dawley®SD®, Harlan, Indianapolis, Ind.) weighing 200-300 grams.
Test compounds were prepared in a Cremaphor vehicle mixture of 1:1:18 CremophorEL:ethanol:water. Cremophor was obtained from Sigma Chemical (St. Louis, Mo.). The vehicle mixture or vehicle mixture plus test compound were each administered orally.
Assessment of thermal hyperalgesia: Baseline and post-treatment paw withdrawal latencies to a noxious thermal stimulus were measured using a plantar test apparatus (Ugo Basile; obtained from Stoelting, Wood Dale, Ill.). This apparatus generates an infrared heat source that is linearly increasing in intensity. To avoid tissue damage, the power to the heat source was cut off after 20 seconds.
Paw withdrawal latency is defined as the time required for the rat to flick its paw away from the thermal stimulus. Ibuprofen (100 mg/kg, p.o.) was used as the positive control. Paw withdrawal latencies (in seconds) were measured before (naïve paw latency, L1) and 24 hr following (CFA-inflamed paw latency, L2) a single intraplantar injection of 0.1 mL CFA (Sigma-Aldrich, cat F5881, Mycobacterium tuberculosis 1 mg/ml).
Test compounds were administered orally 23 hours following CFA injection; i.e., 1 hour prior to thermal assessment (compound treated CFA-inflamed paw latency, L3). The mean paw withdrawal latency and standard error of the mean (SEM) was determined for the injured paws for each treatment group.
Data were expressed as percent maximum […] effect (% MPE) defined as the percentage of restoration of latency of test compound-treated CFA inflamed paw as compared to the naïve paw latency.

Where [3] appears, read: EC50 (Potency at Human CB2 determined by cAMP Assay).
The mark [4] stands for this setting: read-out: EC50 (Potency at Human CB2 determined by cAMP Assay).

Sequence of human CB2 receptor (hCB2) (P34972 whole entry): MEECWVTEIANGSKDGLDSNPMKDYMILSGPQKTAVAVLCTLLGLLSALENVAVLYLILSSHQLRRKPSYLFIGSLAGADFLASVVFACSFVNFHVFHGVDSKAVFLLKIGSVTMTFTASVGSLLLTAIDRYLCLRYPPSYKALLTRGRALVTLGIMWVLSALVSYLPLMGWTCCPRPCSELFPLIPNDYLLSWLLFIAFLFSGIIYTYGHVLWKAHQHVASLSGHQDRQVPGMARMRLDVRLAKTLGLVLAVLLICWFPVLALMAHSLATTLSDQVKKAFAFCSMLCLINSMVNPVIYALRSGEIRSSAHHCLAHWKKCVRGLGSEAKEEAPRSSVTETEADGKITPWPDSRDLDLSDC
Sequence of human CB1 receptor (hCB1) (P21554 whole entry): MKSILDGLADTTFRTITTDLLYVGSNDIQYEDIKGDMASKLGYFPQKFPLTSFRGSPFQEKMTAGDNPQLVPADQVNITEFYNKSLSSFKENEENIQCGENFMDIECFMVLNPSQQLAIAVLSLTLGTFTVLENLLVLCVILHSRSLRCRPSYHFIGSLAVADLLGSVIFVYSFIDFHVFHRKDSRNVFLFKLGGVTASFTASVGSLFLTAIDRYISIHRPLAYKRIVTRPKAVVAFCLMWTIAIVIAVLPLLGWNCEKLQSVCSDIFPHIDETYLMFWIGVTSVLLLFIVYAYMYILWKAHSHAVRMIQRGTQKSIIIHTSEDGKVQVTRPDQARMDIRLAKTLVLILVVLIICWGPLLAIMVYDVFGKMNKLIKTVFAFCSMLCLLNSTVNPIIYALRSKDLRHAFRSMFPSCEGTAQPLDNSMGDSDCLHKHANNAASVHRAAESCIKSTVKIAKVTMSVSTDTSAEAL

In the case of `CC(C)(C)[C@H](NC(=O)n1nc(-c2cc(Cl)ccc2F)c2c1CCOC2)C(=O)NCCO` [Compound 86, (S)-3-(5-chloro-2-fluorophenyl)-N-(1-(2-hydroxyethylamino)-3,3-dimethyl-1-oxobutan-2-yl)-6,7-dihydropyrano[4,3-c]pyrazole-1(4H)-carboxamide], the concentration for a half-maximal effect (EC50) in assay [1] and in assay [2] (setting [3]) was under 1000 nM each time. Further, the inhibition in vivo at 3 mg/kg with male Sprague-Dawley rats was 27%.
For `CC(C)(C)[C@H](NC(=O)n1nc(-c2cc(F)ccc2F)c2c1CCOC2)C(=O)NCCO` [Compound 87, (S)-3-(2,5-difluorophenyl)-N-(1-(2-hydroxyethylamino)-3,3-dimethyl-1-oxobutan-2-yl)-6,7-dihydropyrano[4,3-c]pyrazole-1(4H)-carboxamide], the EC50 in assay [1] and in assay [2] (setting [3]) was under 1000 nM each time. Also, in the assay with male Sprague-Dawley rats, the inhibition in vivo at 3 mg/kg was 50%.
For `CC(C)(C)[C@H](NC(=O)n1nc(-c2ccc(Cl)cc2F)c2c1CCOC2)C(=O)NCCO` [Compound 88, (S)-3-(4-chloro-2-fluorophenyl)-N-(1-(2-hydroxyethylamino)-3,3-dimethyl-1-oxobutan-2-yl)-6,7-dihydropyrano[4,3-c]pyrazole-1(4H)-carboxamide], the EC50 in assay [1] and in assay [2] (setting [4]) was under 1000 nM each time. Further, the inhibition in vivo at 3 mg/kg in the assay with male Sprague-Dawley rats was determined as 47%.
Take `CN1CCc2c(-c3cc(F)c(F)cc3F)nn(C(=O)N[C@H](C(=O)NCCO)C(C)(C)C)c2C1` [Compound 89, (S)—N-(1-(2-hydroxyethylamino)-3,3-dimethyl-1-oxobutan-2-yl)-6-methyl-3-(2,4,5-trifluorophenyl)-4,5,6,7-tetrahydro-1H-pyrazolo[3,4-c]pyridine-1-carboxamide]: the EC50 in assay [1] and in assay [2] (setting [3]) was under 1000 nM throughout. Besides, the inhibition in vivo at 3 mg/kg in the assay on male Sprague-Dawley rats worked out at 52%.
With `CN1CCc2c(-c3ccc(F)c(F)c3)nn(C(=O)N[C@H](C(=O)NCCO)C(C)(C)C)c2C1` [Compound 90, (S)-3-(3,4-difluorophenyl)-N-(1-(2-hydroxyethylamino)-3,3-dimethyl-1-oxobutan-2-yl)-6-methyl-4,5,6,7-tetrahydro-1H-pyrazolo[3,4-c]pyridine-1-carboxamide], the EC50 in assay [1] is under 1000 nM; in assay [2] (setting [4]), over 1000 nM. The inhibition in vivo at 3 mg/kg in the assay with male Sprague-Dawley rats was determined as 25%.
Take `CN1CCCc2c1c(-c1ccc(F)c(F)c1)nn2C(=O)N[C@H](C(=O)NCCO)C(C)(C)C` [Compound 91, (S)-3-(3,4-difluorophenyl)-N-(1-(2-hydroxyethylamino)-3,3-dimethyl-1-oxobutan-2-yl)-4-methyl-4,5,6,7-tetrahydro-1H-pyrazolo[4,3-b]pyridine-1-carboxamide]: the EC50 in assay [1] and in assay [2] (setting [4]) was under 1000 nM throughout. Further, in the assay on male Sprague-Dawley rats, the inhibition in vivo at 3 mg/kg stood at 47%.
In the case of `CN1CCCc2c1c(-c1cc(F)ccc1F)nn2C(=O)N[C@H](C(=O)NCCO)C(C)(C)C` [Compound 92, (S)-3-(2,5-difluorophenyl)-N-(1-(2-hydroxyethylamino)-3,3-dimethyl-1-oxobutan-2-yl)-4-methyl-4,5,6,7-tetrahydro-1H-pyrazolo[4,3-b]pyridine-1-carboxamide], the EC50 in assay [1] and in assay [2] (setting [3]) was under 1000 nM each time. Further, the inhibition in vivo at 3 mg/kg with male Sprague-Dawley rats worked out at 23%.
In the case of `CN1CCc2c(-c3cc(F)ccc3F)nn(C(=O)N[C@H](C(=O)NCCO)C(C)(C)C)c2C1` [Compound 93, (S)-3-(2,5-difluorophenyl)-N-(1-(2-hydroxyethylamino)-3,3-dimethyl-1-oxobutan-2-yl)-6-methyl-4,5,6,7-tetrahydro-1H-pyrazolo[3,4-c]pyridine-1-carboxamide], the EC50 in assay [1] and in assay [2] (setting [3]) was under 1000 nM each time. For the same compound, the inhibition in vivo at 3 mg/kg with male Sprague-Dawley rats worked out at 28%.
Regarding `CN1CCCc2c1c(-c1cc(Cl)ccc1F)nn2C(=O)N[C@H](C(=O)NCCO)C(C)(C)C` [Compound 94, (S)-3-(5-chloro-2-fluorophenyl)-N-(1-(2-hydroxyethylamino)-3,3-dimethyl-1-oxobutan-2-yl)-4-methyl-4,5,6,7-tetrahydro-1H-pyrazolo[4,3-b]pyridine-1-carboxamide], the concentration giving a half-maximal response (EC50) in assay [1] and in assay [2] (setting [3]) was under 1000 nM each time. Besides, the inhibition in vivo at 3 mg/kg in the assay on male Sprague-Dawley rats worked out at 27%.
For `CC(C)(C)[C@H](NC(=O)n1nc(-c2ccc(F)c(F)c2)c2c1COCC2)C(=O)NCCO` [Compound 95, (S)-3-(3,4-difluorophenyl)-N-(1-(2-hydroxyethylamino)-3,3-dimethyl-1-oxobutan-2-yl)-4,5-dihydropyrano[3,4-c]pyrazole-1(7H)-carboxamide], the EC50 in assay [1] and in assay [2] (setting [3]) was under 1000 nM in each case. Further, the inhibition in vivo at 3 mg/kg in the assay on male Sprague-Dawley rats was 41%.
`CC(C)(C)[C@H](NC(=O)n1nc(-c2cc(Cl)ccc2F)c2c1COCC2)C(=O)NCCO` [Compound 96, (S)-3-(5-chloro-2-fluorophenyl)-N-(1-(2-hydroxyethylamino)-3,3-dimethyl-1-oxobutan-2-yl)-4,5-dihydropyrano[3,4-c]pyrazole-1(7H)-carboxamide]: the EC50 in assay [1] and in assay [2] (setting [3]) was under 1000 nM in each case. The inhibition in vivo at 3 mg/kg in the assay with male Sprague-Dawley rats was 52%.
Regarding `CN1CCc2c(c(-c3ccc(F)c(F)c3)nn2C(=O)N[C@H](C(=O)NCCO)C(C)(C)C)C1` [Compound 98, (S)-3-(3,4-difluorophenyl)-N-(1-(2-hydroxyethylamino)-3,3-dimethyl-1-oxobutan-2-yl)-5-methyl-4,5,6,7-tetrahydro-1H-pyrazolo[4,3-c]pyridine-1-carboxamide], the EC50 in assay [1] and in assay [2] (setting [3]) was under 1000 nM each time. Further, the inhibition in vivo at 3 mg/kg in the assay on male Sprague-Dawley rats was 36%.
Take `CC(C)(C)[C@H](NC(=O)n1nc(-c2ccc(F)c(F)c2)c2c1CCOC2)C(N)=O` [Compound 99, (S)—N-(1-amino-3,3-dimethyl-1-oxobutan-2-yl)-3-(3,4-difluorophenyl)-6,7-dihydropyrano[4,3-c]pyrazole-1(4H)-carboxamide]: the EC50 in assay [1] is under 1000 nM; in assay [2] (setting [4]), over 1000 nM. Further, the inhibition in vivo at 3 mg/kg with male Sprague-Dawley rats amounted to 68%.
On to `CCOC(=O)CN1CCCc2c1c(-c1ccc(F)c(F)c1)nn2C(=O)N[C@H](C(=O)NC)C(C)(C)C` [Compound 100, (S)-ethyl 2-(3-(3,4-difluorophenyl)-1-(3,3-dimethyl-1-(methylamino)-1-oxobutan-2-ylcarbamoyl)-6,7-dihydro-1H-pyrazolo[4,3-b]pyridin-4(5H)-yl)acetate], for which the 50% effective concentration (EC50) in assay [1] and in assay [2] (setting [3]) was under 1000 nM each time.
With `CNC(=O)[C@@H](NC(=O)n1nc(-c2ccc(F)c(F)c2)c2c1CCCN2CCO)C(C)(C)C` [Compound 101, (S)-3-(3,4-difluorophenyl)-N-(3,3-dimethyl-1-(methylamino)-1-oxobutan-2-yl)-4-(2-hydroxyethyl)-4,5,6,7-tetrahydro-1H-pyrazolo[4,3-b]pyridine-1-carboxamide], the EC50 in assay [1] and in assay [2] (setting [4]) was under 1000 nM each time. For the same compound, the inhibition in vivo at 3 mg/kg with male Sprague-Dawley rats came to 28%.
